Measured values taken from patent US20160346202A1, “Composition for Vectorizing an Anti-Cancer Agent” (GUERBET, priority 2014, published 2016).

How the values were obtained:
[1] = Plasma kinetics of the anti-cancer agent after intra-arterial (TACE) injection, rat with N1-S1 tumor; format: in vivo, female Sprague-Dawley rats; conditions: female, Sprague-Dawley, rat N1-S1 model
Method: The tumor induction method described in Garin et al. (Lab Anim. 2005 July; 39(3): 314-20) was used on female Sprague-Dawley rats (supplier Dépré or Janvier, France), anesthetized beforehand.
6×10^6 N1-S1 rat hepatocellular carcinoma tumor cells (deposited at ATCC under the reference CRLL-1604™, also called Novikoff cells) suspended in 100 μl of IMDM medium (Iscove's Modified Dulbecco's Medium) were administered under the hepatic capsule of the left lateral lobe of the female rats, by slow injection over the course of approximately 50 seconds. […]
The plasma doxorubicin assay was carried out in the heparinized rat plasma by high performance liquid chromatography (or HPLC), the chromatograph being equipped with a fluorescence detector. […] 10 μl of the extract were analyzed by reverse-phase HPLC on a Zorbax 300SB-C18 4.6×150 mm, 3.5 μm column (with a Zorbax 300SB-C18 4.6×12.5 mm, 5 μm precolumn) and fluorimetric detection (excitation wavelength 480 nm, emission wavelength 560 nm).
The analysis was carried out over the course of 30 minutes with a 5 mM ammonium acetate, pH 3.5/acetonitrile gradient. […] When the area of the HPLC peak was greater than the upper limit of quantification, 5 μl were injected instead of 10 μl in order to obtain an area of doxorubicin included in the range. […]

[2] = Plasma kinetics of doxorubicin after TACE, VX2 rabbits; format: in vivo, New Zealand rabbits; conditions: intra-arterial injection 300 μl, mean (±SD)
Method: The tumor induction method described by Hong et al. (Clin Cancer Res 2006; 12 (8): 2563-2567) was used on New Zealand rabbits (NZ; supplier Charles River, France), anesthetized beforehand.
Fragments of VX2 tumor tissues are implanted (a fragment of 25 mg/per liver of NZ rabbit) under the hepatic capsule of the left lateral lobe of the rabbits. These rabbits with a tumor in the left hepatic lobe will subsequently be referred to as “VX2 rabbits”.
19 days after having carried out the tumor induction method, the TACE is carried out. Thus, the products (volume: 300 μl) are injected into the pre-anesthetized animals, using a catheter guided by fluoroscopy (X-ray imaging) via the femoral artery and brought up to the artery feeding the hepatic tumor (injection only where selectivity has been achieved). The TACE is carried out in a dedicated room and under conditions close to clinical practice (interventional radiology).
Blood samples of 300 μl at times 0, 5, 15, 30 or 45 minutes after intra-arterial injection were taken after catheterization of the ear vein. 200 μl of plasma after centrifugation were then recovered and heparinized for assaying the anti-cancer agent. A study of the plasma kinetics of the anti-cancer agent was thus carried out.
The plasma doxorubicin assay was carried out in the heparinized plasma of VX2 rabbits under the same conditions as those described above. […]

[3] = Visual stability (phase separation) of the emulsion; format: physicochemical; conditions: comparative emulsions not in accordance with the invention
Method: The emulsion according to the invention is advantageously stable. The term “stable emulsion” is intended to mean an emulsion having, under conventional temperature (20° C.) and atmospheric pressure (1 bar) conditions and within 24 hours following its preparation, a visual phase separation of less than 5% by volume relative to the total composition in emulsion form. […] Visual phase separation manifests itself when a solution no longer appears uniform to the eye, i.e. when the appearance of at least two phases is observed.

concentration at 45 min ([1]; 45 min after intra-arterial injection, read-out: Plasma doxorubicin concentration at 45 min) [ng/mL] | concentration at 5 min ([1]; intra-arterial injection 100 μl, 0.5 mg anti-cancer agent, average) [ng/mL] | concentration at 5 min ([2]; New Zealand, rabbit, plasma, read-out: Plasma concentration of the anti-cancer agent 5 minutes after injection) [ng/mL] | Plasma concentration of the anti-cancer agent 5 minutes after injection ([2]; listed as Control doxorubicin alone given IA) [ng/mL] | Compound | Observations: phase separation / stability [3]
112 | 2450 | 563 ± 282 | 563 ± 282 | COc1cccc2c1C(=O)c1c(O)c3c(c(O)c1C2=O)C[C@@](O)(C(=O)CO)C[C@@H]3O[C@H]1C[C@H](N)[C@H](O)[C@H](C)O1 [Control doxorubicin alone, doxorubicin] | 
 |  |  |  | Span® 20 | underwent phase separation immediately after they were prepared
 |  |  |  | Span® 83 | underwent phase separation immediately after they were prepared
 |  |  |  | Span® 85 | underwent phase separation immediately after they were prepared
